# Assays:
# Test in all cases: KINOMEscan competition binding
# Conditions in all cases: compound 1.0 µM
# AKT2 (human) = AKT2 (human) (UniProt P31751)
# AURKA (human) = AURKA (human) (UniProt O14965)
# BLK (human) = BLK (human) (UniProt P51451)
# BMX (human) = BMX (human) (UniProt P51813)
# CAMK1G (human) = CAMK1G (human) (UniProt Q96NX5)
# CDK11B (human) = CDK11B (human) (UniProt P21127)
# CDK15 (human) = CDK15 (human) (UniProt Q96Q40)
# CDKL5 (human) = CDKL5 (human) (UniProt O76039)
# CLK3 (human) = CLK3 (human) (UniProt P49761)
# CSK (human) = CSK (human) (UniProt P41240)
# Chain of CSK (human) (P41240 whole entry, looked up): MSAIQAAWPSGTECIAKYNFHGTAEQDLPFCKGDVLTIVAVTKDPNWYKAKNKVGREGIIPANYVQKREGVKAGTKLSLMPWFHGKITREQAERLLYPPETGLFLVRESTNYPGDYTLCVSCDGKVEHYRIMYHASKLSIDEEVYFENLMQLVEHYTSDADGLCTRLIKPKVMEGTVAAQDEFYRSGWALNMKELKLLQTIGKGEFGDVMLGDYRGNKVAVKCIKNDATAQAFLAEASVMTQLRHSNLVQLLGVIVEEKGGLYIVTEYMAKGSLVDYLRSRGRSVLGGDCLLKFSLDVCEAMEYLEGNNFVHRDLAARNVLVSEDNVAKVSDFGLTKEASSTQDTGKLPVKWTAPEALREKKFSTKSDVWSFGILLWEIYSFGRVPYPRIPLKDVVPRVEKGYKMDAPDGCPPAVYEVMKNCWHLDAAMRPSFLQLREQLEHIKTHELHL
# CSNK1G1 (human) = CSNK1G1 (human) (UniProt Q9HCP0)
# DAPK2 (human) = DAPK2 (human) (UniProt Q9UIK4)
# [1] = tested on: EGFR (human), P00533 [G719C]
# [2] = tested on: EGFR (human), P00533 [P753S; 747-752 del]
# EIF2AK2 (human) = EIF2AK2 (human) (UniProt P19525)
# EPHB2 (human) = EPHB2 (human) (UniProt P29323)
# ERBB2 (human) = ERBB2 (human) (UniProt P04626)
# ERBB3 (human) = ERBB3 (human) (UniProt P21860)
# ERBB4 (human) = ERBB4 (human) (UniProt Q15303)
# Chain of ERBB4 (human) (Q15303 whole entry, looked up): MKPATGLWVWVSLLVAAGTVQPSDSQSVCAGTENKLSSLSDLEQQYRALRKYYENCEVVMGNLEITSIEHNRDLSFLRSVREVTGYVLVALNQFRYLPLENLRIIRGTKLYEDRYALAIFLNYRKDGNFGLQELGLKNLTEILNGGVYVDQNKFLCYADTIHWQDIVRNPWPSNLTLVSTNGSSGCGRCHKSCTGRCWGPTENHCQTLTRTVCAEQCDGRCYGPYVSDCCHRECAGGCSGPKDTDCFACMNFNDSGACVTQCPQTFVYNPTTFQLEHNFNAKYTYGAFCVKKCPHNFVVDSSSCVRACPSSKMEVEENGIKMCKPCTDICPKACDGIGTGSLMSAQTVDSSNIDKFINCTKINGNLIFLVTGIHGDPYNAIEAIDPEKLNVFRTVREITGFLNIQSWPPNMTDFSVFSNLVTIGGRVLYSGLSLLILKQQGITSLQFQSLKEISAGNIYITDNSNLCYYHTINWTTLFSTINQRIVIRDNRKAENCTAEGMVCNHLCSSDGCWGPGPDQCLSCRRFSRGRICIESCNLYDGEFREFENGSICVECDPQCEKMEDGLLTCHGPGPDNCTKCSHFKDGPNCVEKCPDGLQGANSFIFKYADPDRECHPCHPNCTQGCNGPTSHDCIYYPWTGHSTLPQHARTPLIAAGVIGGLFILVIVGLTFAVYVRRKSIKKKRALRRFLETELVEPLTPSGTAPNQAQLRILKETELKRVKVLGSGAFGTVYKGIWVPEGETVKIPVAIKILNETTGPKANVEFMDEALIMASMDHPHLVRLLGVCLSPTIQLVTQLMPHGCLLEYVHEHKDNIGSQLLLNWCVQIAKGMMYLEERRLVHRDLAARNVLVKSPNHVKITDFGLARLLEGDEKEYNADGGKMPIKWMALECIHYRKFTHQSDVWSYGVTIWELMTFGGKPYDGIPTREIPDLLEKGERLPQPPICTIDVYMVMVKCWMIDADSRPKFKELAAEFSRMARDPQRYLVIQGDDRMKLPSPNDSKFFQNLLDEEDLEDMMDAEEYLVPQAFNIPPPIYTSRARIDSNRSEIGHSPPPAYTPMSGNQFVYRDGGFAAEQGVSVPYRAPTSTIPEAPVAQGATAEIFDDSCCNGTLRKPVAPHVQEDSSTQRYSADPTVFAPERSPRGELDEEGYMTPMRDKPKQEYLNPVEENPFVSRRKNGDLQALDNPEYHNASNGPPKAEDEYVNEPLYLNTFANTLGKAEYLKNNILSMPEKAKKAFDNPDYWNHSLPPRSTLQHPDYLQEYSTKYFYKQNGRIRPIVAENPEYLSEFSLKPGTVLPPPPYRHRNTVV
# IKBKB (human) = IKBKB (human) (UniProt O14920)
# LIMK1 (human) = LIMK1 (human) (UniProt P53667)
# MAP3K1 (human) = MAP3K1 (human) (UniProt Q13233)
# MAPK9 (human) = MAPK9 (human) (UniProt P45984)
# MKNK2 (human) = MKNK2 (human) (UniProt Q9HBH9)
# MYO3A (human) = MYO3A (human) (UniProt Q8NEV4)
# Chain of MYO3A (human) (Q8NEV4 whole entry, looked up): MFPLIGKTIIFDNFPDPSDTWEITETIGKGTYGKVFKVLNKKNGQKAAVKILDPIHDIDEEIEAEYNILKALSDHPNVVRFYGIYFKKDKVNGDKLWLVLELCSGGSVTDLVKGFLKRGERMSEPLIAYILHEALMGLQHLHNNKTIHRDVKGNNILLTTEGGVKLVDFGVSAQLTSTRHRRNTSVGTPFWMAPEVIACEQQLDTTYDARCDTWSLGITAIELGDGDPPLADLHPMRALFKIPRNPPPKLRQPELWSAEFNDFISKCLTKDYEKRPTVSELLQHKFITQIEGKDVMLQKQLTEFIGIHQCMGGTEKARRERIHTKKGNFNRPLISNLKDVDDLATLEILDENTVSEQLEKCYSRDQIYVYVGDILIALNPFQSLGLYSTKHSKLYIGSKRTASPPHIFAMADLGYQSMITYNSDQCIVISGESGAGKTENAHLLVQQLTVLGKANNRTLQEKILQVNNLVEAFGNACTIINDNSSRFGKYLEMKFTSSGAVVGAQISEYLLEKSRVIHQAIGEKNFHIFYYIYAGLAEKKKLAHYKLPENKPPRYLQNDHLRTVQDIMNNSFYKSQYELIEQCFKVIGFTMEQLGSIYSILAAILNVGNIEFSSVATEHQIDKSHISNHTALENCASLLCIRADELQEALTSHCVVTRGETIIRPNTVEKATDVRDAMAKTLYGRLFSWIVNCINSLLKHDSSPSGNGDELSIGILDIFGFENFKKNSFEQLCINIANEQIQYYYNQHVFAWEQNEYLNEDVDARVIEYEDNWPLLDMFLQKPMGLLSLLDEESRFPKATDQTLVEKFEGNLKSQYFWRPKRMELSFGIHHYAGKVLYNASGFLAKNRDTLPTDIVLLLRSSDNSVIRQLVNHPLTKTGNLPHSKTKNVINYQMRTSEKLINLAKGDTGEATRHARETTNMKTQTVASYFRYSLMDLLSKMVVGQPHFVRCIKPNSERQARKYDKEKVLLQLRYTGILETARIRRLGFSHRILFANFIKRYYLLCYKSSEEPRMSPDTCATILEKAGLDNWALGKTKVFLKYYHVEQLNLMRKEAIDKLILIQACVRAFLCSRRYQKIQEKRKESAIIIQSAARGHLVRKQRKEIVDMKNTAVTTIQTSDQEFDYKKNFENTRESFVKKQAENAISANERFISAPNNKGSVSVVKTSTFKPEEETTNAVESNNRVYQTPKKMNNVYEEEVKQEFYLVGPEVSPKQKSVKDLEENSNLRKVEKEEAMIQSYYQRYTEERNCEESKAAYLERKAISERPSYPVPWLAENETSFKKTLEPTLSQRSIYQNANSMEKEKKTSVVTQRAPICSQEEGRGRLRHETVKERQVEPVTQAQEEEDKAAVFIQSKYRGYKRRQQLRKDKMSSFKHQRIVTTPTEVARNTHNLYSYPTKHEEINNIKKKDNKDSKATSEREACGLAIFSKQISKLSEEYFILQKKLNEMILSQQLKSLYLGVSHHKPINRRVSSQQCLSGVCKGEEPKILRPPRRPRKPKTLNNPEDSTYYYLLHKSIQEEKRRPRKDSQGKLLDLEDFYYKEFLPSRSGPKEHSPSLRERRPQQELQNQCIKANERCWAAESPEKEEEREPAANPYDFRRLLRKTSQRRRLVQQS
# NTRK2 (human) = NTRK2 (human) (UniProt Q16620)
# Chain of NTRK2 (human) (Q16620 whole entry, looked up): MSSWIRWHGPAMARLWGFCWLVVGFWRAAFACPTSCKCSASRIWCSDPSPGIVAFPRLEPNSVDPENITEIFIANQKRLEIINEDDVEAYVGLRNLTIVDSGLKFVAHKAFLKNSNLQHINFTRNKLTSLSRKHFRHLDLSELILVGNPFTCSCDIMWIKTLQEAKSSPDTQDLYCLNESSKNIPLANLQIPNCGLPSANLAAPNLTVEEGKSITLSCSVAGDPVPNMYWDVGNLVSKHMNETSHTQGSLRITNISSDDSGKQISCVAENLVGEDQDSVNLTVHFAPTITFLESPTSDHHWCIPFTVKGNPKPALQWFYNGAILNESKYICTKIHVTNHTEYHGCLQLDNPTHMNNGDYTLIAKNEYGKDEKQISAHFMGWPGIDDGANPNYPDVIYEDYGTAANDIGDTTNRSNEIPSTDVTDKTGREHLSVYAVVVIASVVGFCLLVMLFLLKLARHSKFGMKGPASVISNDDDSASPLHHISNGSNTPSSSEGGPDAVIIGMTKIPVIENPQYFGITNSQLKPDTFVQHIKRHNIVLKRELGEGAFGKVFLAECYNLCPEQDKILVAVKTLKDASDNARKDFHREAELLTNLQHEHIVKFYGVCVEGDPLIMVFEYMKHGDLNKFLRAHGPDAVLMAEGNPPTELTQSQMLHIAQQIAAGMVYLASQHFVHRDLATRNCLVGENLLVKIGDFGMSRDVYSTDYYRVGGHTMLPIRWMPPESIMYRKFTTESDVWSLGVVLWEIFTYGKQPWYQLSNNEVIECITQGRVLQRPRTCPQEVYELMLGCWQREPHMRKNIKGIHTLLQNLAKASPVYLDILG
# PDPK1 (human) = PDPK1 (human) (UniProt O15530)
# PRKD2 (human) = PRKD2 (human) (UniProt Q9BZL6)
# [3] = tested on: RET (human), P07949 [V804M]
# RPS6KA4 KD2 (human) = RPS6KA4 KD2 (human) (UniProt O75676)
# RPS6KA6 KD2 (human) = RPS6KA6 KD2 (human) (UniProt Q9UK32)
# SIK2 (human) = SIK2 (human) (UniProt Q9H0K1)
# SRPK1 (human) = SRPK1 (human) (UniProt Q96SB4)
# STK17B (human) = STK17B (human) (UniProt O94768)
# TBK1 (human) = TBK1 (human) (UniProt Q9UHD2)
# TGFBR1 (human) = TGFBR1 (human) (UniProt P36897)
# TGFBR2 (human) = TGFBR2 (human) (UniProt P37173)
# TLK1 (human) = TLK1 (human) (UniProt Q9UKI8)
# Chain of TLK1 (human) (Q9UKI8 whole entry, looked up): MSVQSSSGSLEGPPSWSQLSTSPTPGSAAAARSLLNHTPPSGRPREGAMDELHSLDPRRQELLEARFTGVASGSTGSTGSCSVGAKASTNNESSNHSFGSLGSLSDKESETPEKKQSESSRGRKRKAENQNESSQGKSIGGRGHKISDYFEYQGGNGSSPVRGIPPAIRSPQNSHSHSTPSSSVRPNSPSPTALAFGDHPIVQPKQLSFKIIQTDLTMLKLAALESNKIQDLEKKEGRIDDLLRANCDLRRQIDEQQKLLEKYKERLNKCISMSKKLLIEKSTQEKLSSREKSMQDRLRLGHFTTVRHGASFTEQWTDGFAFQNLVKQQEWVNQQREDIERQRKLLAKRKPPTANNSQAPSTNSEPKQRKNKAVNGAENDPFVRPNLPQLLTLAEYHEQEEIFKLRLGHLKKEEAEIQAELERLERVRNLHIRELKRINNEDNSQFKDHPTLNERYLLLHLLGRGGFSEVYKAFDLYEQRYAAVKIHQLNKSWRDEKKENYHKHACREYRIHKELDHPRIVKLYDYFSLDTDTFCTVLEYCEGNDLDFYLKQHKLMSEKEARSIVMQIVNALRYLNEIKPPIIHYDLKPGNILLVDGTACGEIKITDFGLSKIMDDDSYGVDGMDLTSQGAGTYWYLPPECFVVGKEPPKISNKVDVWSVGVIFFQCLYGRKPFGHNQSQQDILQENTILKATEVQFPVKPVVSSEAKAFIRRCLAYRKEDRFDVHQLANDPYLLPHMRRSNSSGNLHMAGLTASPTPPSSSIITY
# TNNI3K (human) = TNNI3K (human) (UniProt Q59H18)
# WEE1 (human) = WEE1 (human) (UniProt P30291)
smiles,measurement,setting,value
Nc1cc(C(F)(F)F)c(-c2cc(N3CCOCC3)nc(N3CCOCC3)n2)cn1,inhibition of binding,AKT2 (human),0%
same,inhibition of binding,AURKA (human),0%
same,inhibition of binding,BLK (human),0%
same,inhibition of binding,BMX (human),14%
same,inhibition of binding,CAMK1G (human),0%
same,inhibition of binding,CDK11B (human),10%
same,inhibition of binding,CDK15 (human),0%
same,inhibition of binding,CDKL5 (human),50%
same,inhibition of binding,CLK3 (human),29%
same,inhibition of binding,CSK (human),8%
same,inhibition of binding,CSNK1G1 (human),25%
same,inhibition of binding,DAPK2 (human),13%
same,inhibition of binding,[1],4%
same,inhibition of binding,[2],1%
same,inhibition of binding,EIF2AK2 (human),19%
same,inhibition of binding,EPHB2 (human),0%
same,inhibition of binding,ERBB2 (human),24%
same,inhibition of binding,ERBB3 (human),22%
same,inhibition of binding,ERBB4 (human),7%
same,inhibition of binding,IKBKB (human),0%
same,inhibition of binding,LIMK1 (human),0%
same,inhibition of binding,MAP3K1 (human),0%
same,inhibition of binding,MAPK9 (human),0%
same,inhibition of binding,MKNK2 (human),5%
same,inhibition of binding,MYO3A (human),7%
same,inhibition of binding,NTRK2 (human),0%
same,inhibition of binding,PDPK1 (human),0%
same,inhibition of binding,PRKD2 (human),38%
same,inhibition of binding,[3],14%
same,inhibition of binding,RPS6KA4 KD2 (human),0%
same,inhibition of binding,RPS6KA6 KD2 (human),18%
same,inhibition of binding,SIK2 (human),0%
same,inhibition of binding,SRPK1 (human),0%
same,inhibition of binding,STK17B (human),0%
same,inhibition of binding,TBK1 (human),0%
same,inhibition of binding,TGFBR1 (human),4%
same,inhibition of binding,TGFBR2 (human),24%
same,inhibition of binding,TLK1 (human),12%
same,inhibition of binding,TNNI3K (human),0%
same,inhibition of binding,WEE1 (human),2%
